Our source for the IC50 values is patent US11440913B2, “Aminoimidazopyridazines as kinase inhibitors” (BRISTOL-MYERS SQUIBB COMPANY, priority 2017, dated 2022).

Structures can show the parent of a compound that is named as a salt. Where two headings read alike, the source gives them in different places.

Assay [1] has as its target His-GST-TVMV-hRIPK1(1-324) (Homo sapiens (Human), UniProt Q13546). As to the kind of experiment: RIPK1 HTRF Binding Assay. To be noted: HTRF binding, 1 h at rt; read-out: RIPK1 (IC50). In a few lines:
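HTRF probe-displacement binding: 1 nM His-GST-TVMV-hRIPK1(1-324) (baculovirus construct), 90.6 nM probe, 0.2 nM anti-GST-Tb in 20 mM HEPES, 10 mM MgCl2, 0.015% Brij-35, 4 mM DTT, 0.05 mg/mL BSA. Incubated 1 h at rt; FRET 520/495 nm ratio, inhibition relative to DMSO-only wells.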
For orientation: TR-FRET usually uses a lanthanide donor and a delayed reading to cut background.

Assay [2] has as its system MLKL phosphorylation in HT29-L23 human colorectal adenocarcinoma cells. As to the kind of experiment: MLKL Phosphorylation High-Content Assay. To be noted: 6 h, necroptosis induced with TNFα, SMAC mimetic and Z-VAD, read-out: pMLKL (IC50). Type of assay: cell-based. In a few lines: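 HT29-L23 cells pretreated 30 min at 37 °C with compound (6.25 to 0.106 μM final), then necroptosis induced with TNFα 35 ng/mL, SMAC mimetic 700 nM and Z-VAD 140 nM for 6 h. Fixed cells immunostained for MLKL pS358 and imaged; IC50 and Ymax from 4-parameter logistic fit.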

Chain of His-GST-TVMV-hRIPK1(1-324) (Q13546 1-324): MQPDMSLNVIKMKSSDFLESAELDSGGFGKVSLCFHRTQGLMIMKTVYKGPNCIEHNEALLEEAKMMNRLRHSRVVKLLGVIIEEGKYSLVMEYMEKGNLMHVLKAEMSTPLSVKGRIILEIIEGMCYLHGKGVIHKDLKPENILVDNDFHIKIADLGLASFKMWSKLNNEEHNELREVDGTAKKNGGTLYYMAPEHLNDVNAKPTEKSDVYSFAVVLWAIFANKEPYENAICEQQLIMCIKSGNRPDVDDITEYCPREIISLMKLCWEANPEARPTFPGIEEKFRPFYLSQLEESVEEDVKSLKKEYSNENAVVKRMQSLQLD

As a reminder, the IC50 is the concentration that gives 50% inhibition. Take `[2H]C([2H])([2H])[C@@H](NC(=O)c1cc(-c2ccc3nc(NC(C)=O)cn3n2)cnc1C)c1cc(OC(F)(F)F)ccc1F` [Example 199, 5-{2-acetamidoimidazo[1,2-b]pyridazin-6-yl}-N-[(1R)-1-[2-fluoro-5-(trifluoromethoxy)phenyl](2,2,2-deutero)ethyl]-2-methylpyridine-3-carboxamide]: the IC50 in assay [1] stood at 0.013 µM; in assay [2] (Homo sapiens) it was 0.017 µM.
On the same counts, the results for `[2H]C([2H])(NC(=O)c1cc(-c2ccc3nc(NC(C)=O)cn3n2)cnc1C)c1cc(C(F)(F)F)ccc1F` [Example 200, 5-{2-acetamidoimidazo[1,2-b]pyridazin-6-yl}-N-{[2-fluoro-5-(trifluoromethyl)phenyl] (deutero)methyl}-2-methylpyridine-3-carboxamide] are 0.017 µM and 0.034 µM.
For `CC(=O)Nc1cn2nc(-c3cnc(C)c(C(=O)NCc4cc(F)cc(F)c4OC4CCOCC4)c3)ccc2n1` [Example 201, N-{[3,5-difluoro-2-(oxan-4-yloxy)phenyl]methyl}-5-{2-acetamidoimidazo[1,2-b]pyridazin-6-yl}-2-methylpyridine-3-carboxamide], the IC50 amounted to 0.006 µM in assay [1] and 0.01 µM in assay [2] (Homo sapiens).
With `CC(=O)Nc1cn2nc(-c3cnc(C)c(C(=O)NC(C)c4ccccc4OC(F)(F)F)c3)ccc2n1` (centres unmarked) [Example 202, 5-{2-acetamidoimidazo[1,2-b]pyridazin-6-yl}-2-methyl-N-{1-[2-(trifluoromethoxy)phenyl]ethyl}pyridine-3-carboxamide], the IC50 was determined as 0.032 µM in assay [1] and 0.034 µM in assay [2].
For `CC(=O)Nc1cn2nc(-c3cnc(C)c(C(=O)NC(C)c4ccccc4OC(F)(F)F)c3)ccc2n1` (centres unmarked) [Example 203, 5-{2-acetamidoimidazo[1,2-b]pyridazin-6-yl}-2-methyl-N-{1-[2-(trifluoromethoxy)phenyl]ethyl}pyridine-3-carboxamide], the IC50 in assay [1] was greater than 5 µM; in assay [2], greater than 6.25 µM.
Regarding `CC(=O)Nc1cn2nc(-c3cnc(C)c(C(=O)NC(C)c4cc(C(F)(F)F)ccc4F)c3)ccc2n1` (centres unmarked) [Example 204, 5-{2-acetamidoimidazo[1,2-b]pyridazin-6-yl}-N-{1-[2-fluoro-5-(trifluoromethyl)phenyl]ethyl}-2-methylpyridine-3-carboxamide], the figures for the IC50 in assay [1] and in assay [2] (Homo sapiens) were 0.122 µM and 0.083 µM, respectively.
In the case of `CC(=O)Nc1cn2nc(-c3cnc(C)c(C(=O)NC(C)c4cc(C(F)(F)F)ccc4F)c3)ccc2n1` (centres unmarked) [Example 205, 5-{2-acetamidoimidazo[1,2-b]pyridazin-6-yl}-N-{1-[2-fluoro-5-(trifluoromethyl)phenyl]ethyl}-2-methylpyridine-3-carboxamide], the IC50 in assay [1] is 0.027 µM; in assay [2] it was 0.074 µM.
On to `CC(=O)Nc1cn2nc(-c3cnc(C)c(C(=O)NCc4cc(C(F)(F)F)ccc4F)c3)ccc2n1` [Example 206, 5-{2-acetamidoimidazo[1,2-b]pyridazin-6-yl}-N-{[2-fluoro-5-(trifluoromethyl)phenyl]methyl}-2-methylpyridine-3-carboxamide, TFA], for which the IC50 in assay [1] came to 0.012 µM; in assay [2] (Homo sapiens), 0.037 µM.
On the same counts, the results for `CC(=O)Nc1cn2nc(-c3cnc(C)c(C(=O)NCc4cc(F)cc(OC(F)(F)F)c4)c3)ccc2n1` [Example 207, 5-{2-acetamidoimidazo[1,2-b]pyridazin-6-yl}-N-{[3-fluoro-5-(trifluoromethoxy)phenyl]methyl}-2-methylpyridine-3-carboxamide, TFA] are 0.029 µM and 0.092 µM.
With `[2H]C([2H])(NC(=O)c1cc(-c2ccc3nc(NC(C)=O)cn3n2)cnc1C)c1cc(OC(F)(F)F)ccc1F` [Example 208, 5-{2-acetamidoimidazo[1,2-b]pyridazin-6-yl}-N-{[2-fluoro-5-(trifluoromethoxy)phenyl] (deutero)methyl}-2-methylpyridine-3-carboxamide], the IC50 in assay [1] and in assay [2] (Homo sapiens) was 0.005 µM throughout.
